Experimental data from article PMC7125519 (European Journal of Medicinal Chemistry, 2016).

Key:
TK+ VZV Oka strain = assay type: cell-based, varicella-zoster virus
TK− VZV 07-1 strain = assay type: cell-based, varicella-zoster virus
[1] = test system: murine leukemia (L1210) cells; details: read-out: IC50 L1210; inhibit cell proliferation by 50%; cited from earlier work
[2] = test system: human T-lymphocyte (CEM) cells; details: read-out: IC50 CEM; inhibit cell proliferation by 50%; cited from earlier work
[3] = test system: human cervix carcinoma (HeLa) cells; details: read-out: IC50 HeLa; inhibit cell proliferation by 50%; cited from earlier work
[4] = test system: human embryonic lung (HEL) cells; details: HEL cell cultures (Table 5); microscopically detectable alteration of normal cell morphology
[5] = test system: immortalized human dermal microvascular endothelial cells (HMEC-1); assay: Cytostatic activity, HMEC-1 proliferation; assay type: cell-based; details: HMEC-1, read-out: IC50 HMEC-1, inhibit cell proliferation by 50%
Human Coronavirus (229E) = assay type: cell-based; details: read-out: Antiviral activity EC50 Human Coronavirus (229E)

**Q.** For `CCOP(=O)(OCC)C1CC(Cn2c(=O)n(Cc3ccc(F)cc3)c(=O)c3ccccc32)ON1Cc1ccccc1` (stereo not drawn) [trans-15d/cis-15d (95:5)], which “fold less active against the TK+ virus compared to acyclovir” value (TK+ VZV Oka strain) is on record?
**A.** The value was 4–6 fold.

**Q.** What about the “fold more active against the TK– strain compared to acyclovir” value (TK− VZV 07-1 strain) of the same molecule?
**A.** Its value is 10–14 fold.

**Q.** Which IC50 [1] does the source give for `CCOP(=O)(OCC)[C@H]1C[C@@H](Cn2ccc(=O)n(C(=O)c3ccccc3)c2=O)ON1C` [cis-11a] here?
**A.** The IC50 was > 200 µM.

**Q.** And the IC50 [2]?
**A.** The IC50 was > 200 µM.

**Q.** What about the IC50 [3] of the same molecule?
**A.** The IC50 was > 200 µM.

**Q.** Which results are given for `CCOP(=O)(OCC)[C@@H]1C[C@@H](Cn2ccc(=O)n(C(=O)c3ccccc3)c2=O)ON1C` [trans-11a]?
**A.** IC50 [1]: > 200 µM; IC50 [2]: > 200 µM; IC50 [3]: > 200 µM

**Q.** With `Nc1nc(O)c2ncn(COC(CO)CO)c2n1` [Ganciclovir] as the molecule, how does the Minimum cytotoxic concentration [4] read?
**A.** Its Minimum cytotoxic concentration is >100 µM.

**Q.** With `CCOP(=O)(OCC)[C@@H]1C[C@@H](Cn2c(=O)n(C(=O)c3ccccc3)c(=O)c3ccccc32)ON1Cc1ccccc1` (relative stereo) [trans-13a, Diethyl trans-{5-[(3-benzoyl-2,4-dioxo-3,4-dihydroquinazolin-1(2H)-yl)methyl]-2-benzylisoxazolidin-3-yl}phosphonate] as the molecule, how does the IC50 [5] read?
**A.** Its IC50 is > 250 µM.

**Q.** With `CCOP(=O)(OCC)[C@@H]1C[C@@H](Cn2c(=O)n(C(=O)c3ccccc3)c(=O)c3ccccc32)ON1C` [trans-12a] as the molecule, how does the IC50 [1] read?
**A.** Its IC50 is ≥ 159 µM.

**Q.** What does the source list for `CCOP(=O)(OCC)[C@@H]1C[C@@H](Cn2c(=O)n(C(=O)c3ccc(F)cc3)c(=O)c3ccccc32)ON1C` (relative stereo) [trans-12d, Diethyl trans-{5-[(3-(4-fluorobenzoyl)-2,4-dioxo-3,4-dihydroquinazolin-1(2H)-yl)methyl]-2-methylisoxazolidin-3-yl}phosphonate]?
**A.** IC50 [5]: > 250 µM; Minimum cytotoxic concentration [4]: ≥100 ± 0 µM

**Q.** For `CCOP(=O)(OCC)C1CC(Cn2c(=O)n(Cc3ccccc3F)c(=O)c3ccccc32)ON1Cc1ccccc1` (stereo not drawn) [cis-15b/trans-15b (87:13)], which “fold less active against the TK+ virus compared to acyclovir” value (TK+ VZV Oka strain) is on record?
**A.** The value was 4–6 fold.

**Q.** And the “fold more active against the TK– strain compared to acyclovir” value (TK− VZV 07-1 strain)?
**A.** Its value is 10–14 fold.

**Q.** Which Minimum cytotoxic concentration [4] does the source give for `Nc1nc2c(ncn2COCCO)c(=O)[nH]1` [Acyclovir] here?
**A.** The Minimum cytotoxic concentration was >250 µM.

**Q.** For `Nc1ccn([C@H]2CC[C@@H](CO)O2)c(=O)n1` [Zalcitabine], which Minimum cytotoxic concentration [4] is on record?
**A.** The Minimum cytotoxic concentration was >250 µM.

**Q.** For `CCOP(=O)(OCC)[C@H]1C[C@@H](Cn2c(=O)n(C(=O)c3ccccc3)c(=O)c3ccccc32)ON1C` [cis-12a], which IC50 [1] is on record?
**A.** Its IC50 is > 200 µM.

**Q.** And the IC50 [3]?
**A.** Its IC50 is > 200 µM.

**Q.** For `NC(=O)c1ncn([C@@H]2O[C@H](CO)[C@@H](O)[C@H]2O)n1` [Ribavirin], which Minimum cytotoxic concentration [4] is on record?
**A.** The Minimum cytotoxic concentration was ≥250 µM.

**Q.** For `Cc1cn([C@H]2C[C@H](F)[C@@H](CO)O2)c(=O)[nH]c1=O` [Alovudine], which Minimum cytotoxic concentration [4] is on record?
**A.** The Minimum cytotoxic concentration was >250 µM.

**Q.** With `Nc1ccn(C[C@@H](CO)OCP(=O)(O)O)c(=O)n1.O.O` [Cidofovir] as the molecule, how does the Minimum cytotoxic concentration [4] read?
**A.** The Minimum cytotoxic concentration was >250 µM.

B1: UDA: Urtica dioica agglutinin (UDA), reference compound (protein, UniProt P11218 24-372, looked up)
Lectin/endochitinase 1: QRCGSQGGGGTCPALWCCSIWGWCGDSEPYCGRTCENKCWSGERSDHRCGAAVGNPPCGQDRCCSVHGWCGGGNDYCSGSKCQYRCSSSVRGPRVALSGNSTANSIGNVVVTEPLFDQMFSHRKDCPSQGFYSYHSFLVAAESFPAFGTIGDVATRKREVAAFLAHISQATSGERSDVENPHAWGLCHINTTTVTENDFCTSSDWPCAAGKKYSPRGPIQLTHNFNYGLAGQAIGEDLIQNPDLVEKDPIISFKTALWFWMSQHDNKPSCHDIVLNANSAANRIPNKGVIGNIISRAFGHDDFAVRSSSIGFYKRYCDMLGVSYGHDLKYWFDNTPSSEFQRIQMRVAA
**Q.** With B1 as the molecule, how does the EC50 (Human Coronavirus (229E)) read?
**A.** Its EC50 is 0.4 µM.

**Q.** And the Minimum cytotoxic concentration [4]?
**A.** Its Minimum cytotoxic concentration is ≥100 µM.
